Reference: publication PMC6089211, “Expression and purification of human diacylglycerol kinase α from baculovirus-infected insect cells for structural studies” (PeerJ, 2018)

Biological target: T1, diacylglycerol kinase α (DGKα) (Homo sapiens, UniProt P23743)
T1 construct: gene DGKA; full-length DGKα (aa 1–735), N-terminal His×6 tag, Sf9-expressed
Assay: Michaelis–Menten kinetics, mixed micelle ADP-Glo assay (Km)
Assay type: biochemical

T1 sequence (P23743 whole entry, the tested form may be a part): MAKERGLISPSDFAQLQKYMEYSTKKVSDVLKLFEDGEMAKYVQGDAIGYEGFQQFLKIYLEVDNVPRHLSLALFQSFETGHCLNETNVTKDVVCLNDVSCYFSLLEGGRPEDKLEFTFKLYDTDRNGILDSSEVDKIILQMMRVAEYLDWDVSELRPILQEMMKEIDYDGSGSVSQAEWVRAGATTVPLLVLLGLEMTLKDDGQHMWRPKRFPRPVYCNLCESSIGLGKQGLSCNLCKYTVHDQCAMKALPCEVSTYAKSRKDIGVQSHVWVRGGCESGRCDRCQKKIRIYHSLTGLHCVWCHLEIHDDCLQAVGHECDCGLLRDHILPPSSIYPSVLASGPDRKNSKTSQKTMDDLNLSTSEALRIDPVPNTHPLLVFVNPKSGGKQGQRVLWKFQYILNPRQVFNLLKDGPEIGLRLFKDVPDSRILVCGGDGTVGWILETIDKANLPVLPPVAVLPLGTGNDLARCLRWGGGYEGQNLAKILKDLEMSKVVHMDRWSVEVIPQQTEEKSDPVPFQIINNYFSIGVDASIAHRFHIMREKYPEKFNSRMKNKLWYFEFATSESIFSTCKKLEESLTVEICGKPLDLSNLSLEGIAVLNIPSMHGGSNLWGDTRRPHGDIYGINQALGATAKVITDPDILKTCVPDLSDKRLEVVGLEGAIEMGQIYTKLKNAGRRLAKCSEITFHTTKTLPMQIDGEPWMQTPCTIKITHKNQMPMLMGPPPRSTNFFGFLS

Km: 1.06 ± 0.21 mol%
Structure (SMILES): CCCCCCCC/C=C\CCCCCCCC(=O)OC[C@H](CO)OC(=O)CCCCCCC/C=C\CCCCCCCC [1,2-dioleolyl-sn-glycerol]
